These results are taken from patent US7524844B2, “Dipeptidyl peptidase IV inhibitors, process for their preparation and compositions containing them” (Glenmark Pharmaceuticals S.A., priority 2004, dated 2009).

Structures can show the parent of a compound that is named as a salt.

The target of the first test is T1, human recombinant Dipeptidyl peptidase IV enzyme (DPP-IV) (Homo sapiens, UniProt P27487).
T1 construct: purchased R&D Systems Inc. of Minneapolis, Minn
T1 sequence (P27487 whole entry): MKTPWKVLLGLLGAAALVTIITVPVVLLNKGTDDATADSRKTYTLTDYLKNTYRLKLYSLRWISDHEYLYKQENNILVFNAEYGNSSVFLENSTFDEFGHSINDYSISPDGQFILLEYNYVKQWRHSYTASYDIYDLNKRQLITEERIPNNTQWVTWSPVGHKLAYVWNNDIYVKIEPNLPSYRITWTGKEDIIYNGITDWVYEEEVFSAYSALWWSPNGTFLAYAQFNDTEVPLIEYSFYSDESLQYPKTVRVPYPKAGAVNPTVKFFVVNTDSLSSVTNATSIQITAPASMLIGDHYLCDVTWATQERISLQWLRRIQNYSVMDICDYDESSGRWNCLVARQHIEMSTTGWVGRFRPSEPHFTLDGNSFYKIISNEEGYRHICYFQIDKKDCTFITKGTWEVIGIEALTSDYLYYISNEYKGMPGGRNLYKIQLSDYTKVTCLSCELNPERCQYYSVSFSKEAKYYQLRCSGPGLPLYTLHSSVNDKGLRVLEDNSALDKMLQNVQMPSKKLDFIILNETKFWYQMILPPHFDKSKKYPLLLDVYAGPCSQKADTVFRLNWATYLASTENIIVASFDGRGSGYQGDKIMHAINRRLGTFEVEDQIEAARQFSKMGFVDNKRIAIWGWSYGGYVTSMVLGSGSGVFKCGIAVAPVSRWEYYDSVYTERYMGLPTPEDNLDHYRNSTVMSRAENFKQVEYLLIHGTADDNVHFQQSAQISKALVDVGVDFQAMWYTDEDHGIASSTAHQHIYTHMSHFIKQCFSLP
Description: in-vitro DPP-IV assay (cleavage of AMC from Gly-Pro-AMC). The test is classed as biochemical. To be noted: at 300 nM; printed in the IC50 (nM) column; read-out: DPP-IV inhibition using human recombinant DPP-IV enzyme, percent inhibition. How it is done: DPP-IV activity was determined by the cleavage rate of 7-amino-4-methyl coumarin (AMC) from the synthetic substrate Glycyl-Prolyl-AMC. In brief, the assay was conducted by adding 10 ng of human recombinant Dipeptidyl peptidase IV enzyme (DPP-IV, available commercially from R&D Systems Inc. of Minneapolis, Minn.) in 50 μl of the assay buffer (25 mM Tris, pH 7.4, 140 mM NaCl, 10 mM KCl, 1% BSA) to 96 well black flat bottom microtiter plates. The reaction was initiated by adding 50 μl of 100 μM substrate Gly-Pro-AMC. The incubation was carried out in the kinetic mode at 30° C. for 30 minutes. Fluorescence was measured using Fluorostar with an excitation filter of 380 nm and emission filter of 460 nm. Test compounds and solvent controls were added as 1 μl additions. A standard curve of free amino methyl coumarin (AMC) was generated using 0-100 μM AMC in the assay buffer. The curve generated, which was linear was used for the interpolation of catalytic activity.
Test compounds dissolved in DMSO at 5-6 concentrations were tested in duplicate along with the solvent control and blank samples. Percent inhibition was calculated at each concentration with respect to the solvent control sample (no test compound added). […]
As to `N#C[C@@H]1CCCN1C(=O)CNC1CCC(C(=O)Nc2cc(F)c(F)cc2F)C1` (mixture of isomers) [Example 74, 1-((1SR,3RS)-3-{2-[(2S)-2-Cyanopyrrolidine-1-yl]-2-oxoethylamino}cyclopentyl-carboxamido)-2,4,5-trifluorobenzene], the inhibition at 0.3 µM is 2%.

The test is the same for the next values; noted with them: human recombinant DPP-IV, Gly-Pro-AMC substrate, 30° C., 30 minutes; read-out: DPP-IV inhibition using human recombinant DPP-IV enzyme, IC50.
On to `N#C[C@@H]1CCCN1C(=O)CN[C@@H]1CC[C@H](Cn2cncn2)C1` [Example-37, (2S)-1-{2-[(3S,1R)-3-(1H-1,2,4-Triazol-1-ylmethyl)cyclopentylamino]acetyl}-pyrrolidine-2-carbonitrile], for which the IC50 is 5.1 nM.
Consider `N#Cc1ncn(C[C@H]2CC[C@@H](NCC(=O)N3CCC[C@H]3C#N)C2)c1C#N` [Example-34, 1-((1S,3R)-3-{2-[(2S)-2-Cyanopyrrolidin-1-yl]-2-oxoethylamino}cyclopentylmethyl)-1H-4,5-imidazoledicarbonitrile], for which the IC50 was 9.36 nM.
As to `N#CC[C@H]1CC[C@@H](NCC(=O)N2CCC[C@H]2C#N)C1` [Example-4, (2S)-1-{2-[(3S,1R)-3-Cyanomethylcyclopentylamino]acetyl}-2-pyrrolidinecarbo-nitrile], the IC50 was found to be 22.2 nM.
Turning to `N#C[C@@H]1CCCN1C(=O)CNC1CCC(CN2CCSC2)C1` (mixture of isomers) [Example-17], the IC50 is 288 nM.
The same measure, in the same setting: as for `N#C[C@@H]1CCCN1C(=O)CN[C@H]1CC[C@@H](Cn2nccn2)C1` [Example-56, (2S)-1-{2-[(1S,3R)-3-(2H-1,2,3-Triazol-2-ylmethyl)cyclopentylamino]acetyl}-pyrrolidine-2-carbonitrile], the figure is 78.9 nM.
`N#C[C@@H]1CCCN1C(=O)CN[C@@H]1CC[C@H](Cn2cnnn2)C1` [Example-59, (2S)-1-{2-[(3S,1R)-3-[1H-1 ,2,3,4-Tetrazol-1-ylmethyl]cyclopentylamino]acetyl}-pyrrolidine-2-carbonitrile]: the concentration for half-maximal inhibition (IC50) was determined as 9.12 nM.
With `N#C[C@@H]1C[C@H](F)CN1C(=O)CN[C@@H]1CC[C@@H](Cn2cncn2)C1` [Example-53, (2S,4S)-4-Fluoro-1-{2-[(1R,3R)-3-(1H-1,2,4-Triazol-1-ylmethyl)cyclopentylamino]-acetyl}pyrrolidin-2-carbonitrile], the IC50 is 5.12 nM.
With `N#C[C@@H]1CCCN1C(=O)CNC1CCC(C(=O)N2CCC[C@H]2C#N)C1` (mixture of isomers) [Example-11], the IC50 was 103 nM.
With `N#C[C@@H]1CCCN1C(=O)CNC1CCC(C(=O)Nc2cc(F)ccc2F)C1` (mixture of isomers) [Example 73, 1-((1SR,3RS)-3-{2-[(2S)-2-Cyanopyrrolidin-1-yl)-2-oxoethylamino}cyclopentyl-carboxamido)-2,5-difluorobenzene], the IC50 came to 49.2 nM.
With `N#C[C@@H]1C[C@H](F)CN1C(=O)CN[C@H]1CC[C@@H](Cn2ccnn2)C1` [Example-57], the 50% inhibitory concentration (IC50) worked out at 5.88 nM.
As for `N#C[C@@H]1CCCN1C(=O)CNC1CCC(C(=O)NC23CC4CC(CC(C4)C2)C3)C1` (mixture of isomers) [Example 72, 1-((1SR,3RS)-3-{2-[(2S)-2-Cyanopyrrolidin-1-yl]-2-oxoethylamino}cyclopentyl-carboxamido)adamantine], the IC50 turned out to be 209 nM.
`N#Cc1cccn1C[C@H]1CC[C@@H](NCC(=O)N2CCC[C@H]2C#N)C1` [Example-26, 1-((1S,3R)-3-{2-[(2S)-2-Cyanopyrrolidin-1-yl]-2-oxoethylamino}cyclopentylmethyl)-1H-pyrrole-2-carbonitrile]: the 50% inhibitory concentration (IC50) stood at 5.94 nM.
Same read-out and setting: the figure for `N#C[C@@H]1CCCN1C(=O)CN[C@@H]1CC[C@H](Cn2cncn2)C1` [Example-39, (2S)-1-{2-[(3S,1R)-3-(1H-1,2,4-Triazol-1-ylmethyl)cyclopentylamino]acetyl}-pyrrolidine-2-carbonitrile maleate] is 5.05 nM; for `N#C[C@@H]1CCCN1C(=O)CN[C@@H]1CC[C@H](Cn2nnc(-c3ccc(F)cc3)n2)C1` [Example-62, (2S)-1-(2-{(3S,1R)-3-[5-(4-Fluorophenyl)-2H-1,2,3,4-tetrazol-2-ylmethyl]cyclo-pentylamino}acetyl)pyrrolidine-2-carbonitrile] it is 8.73 nM; for `N#C[C@@H]1CCCN1C(=O)CN[C@@H]1CC[C@H](CN2CCc3ccccc32)C1` [Example-63] it is 21.9 nM.
Regarding `N#C[C@@H]1C[C@H](F)CN1C(=O)CN[C@@H]1CC[C@H](Cn2cncn2)C1` [Example-49, (2S,4S)-1-{2-[(3S,1R)-3-(1H-1,2,4-Triazol-1-ylmethyl)cyclopentylamino]acetyl}-4-fluoropyrrolidine-2-carbonitrile salicylate], the half-inhibitory concentration (IC50) was found to be 3.22 nM.
The same measure, in the same setting: the figure for `N#C[C@@H]1CCCN1C(=O)CN[C@H]1CC[C@@H](Cn2cncn2)C1` [Example-40, (2S)-1-{2-[(3R,1S)-3-(1H-1,2,4-Triazol-1-ylmethyl)cyclopentylamino]acetyl}-pyrrolidine-2-carbonitrile] is 12.5 nM; for `N#C[C@@H]1CCCN1C(=O)CNC1CCC(CN2CCC[C@H]2C(N)=O)C1` (mixture of isomers) [Example-10, (2S)-1-((1SR,3RS)-3-{2-[(2S)-2-Cyanopyrrolidin-1-yl]-2-oxoethylamino}cyclopentyl-methyl)pyrrolidine-2-carboxamide] it is 64.4 nM.
Same read-out and setting: as for `N#C[C@@H]1CCCN1C(=O)CNC1CCC(Cn2cncn2)C1` (mixture of isomers) [Example-36, (2S)-1-{2-[(3SR,1RS)-3-(1H-1,2,4-Triazol-1-ylmethyl)cyclopentylamino]acetyl}-pyrrolidine-2-carbonitrile], the figure is 6 nM.
Take `N#C[C@@H]1CCCN1C(=O)CN[C@H]1CC[C@@H](Cn2cnnn2)C1` [Example-61, (2S)-1-{2-[(1S,3R)-3-(1H-1,2,3,4-Tetrazol-1-ylmethyl)cyclopentylamino]acetyl}-pyrrolidine-2-carbonitrile]: the IC50 turned out to be 11.4 nM.
Take `N#CC[C@@H]1CC[C@H](NCC(=O)N2CCC[C@H]2C#N)C1` [Example-6, (2S)-1-{2-[(3R,1S)-3-Cyanomethylcyclopentylamino]acetyl}-2-pyrrolidinecarbo nitrile]: the IC50 was determined as 21.8 nM.
On to `N#C[C@@H]1CCCN1C(=O)CNC1CCC(C(N)=O)C1` (mixture of isomers) [Example-1, (1SR,3RS)-3-{2-[(2S)-2-Cyanopyrrolidin-1-yl]-2-oxoethylamino}cyclopentane-1-carboxamide], for which the half-inhibitory concentration (IC50) turned out to be 163 nM.
For `N#C[C@@H]1CCCN1C(=O)CN[C@@H]1CC[C@H](Cn2ccnc2)C1` [Example-29, (2S)-1-{2-[(3S,1R)-3-(1H-1-Imidazolylmethyl)cyclopentylamino]acetyl}pyrrolidine-2-carbonitrile], the IC50 came out at 11.2 nM.
`N#C[C@@H]1CCCN1C(=O)CN[C@@H]1CC[C@H](Cn2cnnn2)C1` [Example-60, (2S)-1-{2-[(3S,1R)-3-(1H-1,2,3,4-Tetrazol-1-ylmethyl)cyclopentylamino]acetyl}-pyrrolidine-2-carbonitrile maleate]: the IC50 amounted to 4.12 nM.
As for `N#C[C@@H]1C[C@H](F)CN1C(=O)CN[C@@H]1CC[C@H](Cn2cncn2)C1` [Example-45, (2S,4S)-1-{2-[(3S,1R)-3-(1H-1,2,4-Triazol-1-ylmethyl)cyclopentylamino]acetyl}-4-fluoropyrrolidine-2-carbonitrile oxalate], the IC50 was determined as 4.63 nM.
Turning to `N#Cc1cccn1CC1CCC(NCC(=O)N2C[C@@H](F)C[C@H]2C#N)C1` (mixture of isomers) [Example-27, (2S,4S)-1-{2-[(3SR,1RS)-3-(2-Cyano-1H-pyrrol-1-ylmethyl)cyclopentylamino)-acetyl}-4-fluoropyrrolidine-2-carbonitrile], the IC50 worked out at 3.44 nM.
Regarding `N#C[C@@H]1CCCN1C(=O)CN[C@@H]1C=C[C@H](Cn2cncn2)C1` [Example-35], the IC50 was found to be 68.3 nM.
On to `N#C[C@@H]1CCCN1C(=O)CN[C@@H]1CC[C@H](CN2CCOCC2)C1` [Example-19, (2S)-1-{2-[(3S,1R)-3-Morpholinomethylcyclopentylamino]acetyl}pyrrolidine-2-carbonitrile], for which the IC50 was 20.1 nM.
Consider `N#C[C@@H]1CCCN1C(=O)CNC1CCC(C(=O)Nc2ccccc2-c2ccccc2)C1` (mixture of isomers) [Example 75, 1-((1SR,3RS)-3-{2-[(2S)-2-Cyanopyrrolidin-1-yl)-2-oxoethylamino}cyclopentyl-carboxamido)-2-phenylbenzene], for which the IC50 was determined as 252 nM.
Same read-out and setting: the figure for `N#C[C@@H]1CCCN1C(=O)CN[C@H]1CC[C@@H](Cn2cc3ccccc3n2)C1` [Example-68, (2S)-1-{2-[(1S,3R)-3-(2H-Indazol-2-ylmethyl)cyclopentylamino]acetyl}pyrrolidin-2-carbonitrile] is 19.2 nM.
`N#C[C@@H]1CCCN1C(=O)CN[C@H]1CC[C@@H](Cn2cccn2)C1` [Example-28, (2S)-1-{2-[(1S,3R)-3-(1H-Pyrazol-1-ylmethyl)cyclopentylamino]acetyl}pyrrolidine-2-carbonitrile]: the IC50 worked out at 37.3 nM.
On the same count and under the same terms, the figure for `Cc1ccc(C)n1C[C@H]1CC[C@@H](NCC(=O)N2CCC[C@H]2C#N)C1` [Example-24, (2S)-1-{2-[(3S,1R)-3-(2,5-Dimethyl-1H-1-pyrrolylmethyl)cyclopentylamino}acetyl}-pyrrolidine-2-carbonitrile] is 4.19 nM.

The term inhibition denotes the change of the read-out against control, counted positive when it falls. Broadly, the IC50 is the concentration that inhibits the measured activity by half.
